Where a name gives a salt, the structure may show the parent alone.
Each molecule was assayed on Jurkat HIV-luciferase clones (assay: Jurkat latency reversal assay). Details: Homo sapiens, Jurkat, 48 h.
Assay type: cell-based
Description: Jurkat HIV-luciferase clones were maintained in RPMI medium 1640 (Gibco by Life Technologies) containing 10% (vol/vol) fetal bovine serum (SAFC/Sigma-Aldrich) and 25 units/mL penicillin, 25 units/mL streptomycin (Gibco by Life Technologies), and were split 1:4 every 3 to 4 days to maintain a cell density of ˜0.3 to 1 million cells/mL. The Jurkat clones were maintained with the addition of 500 nM EFV in the medium. Three Jurkat cell clones (C16, I15, and N6), each harboring one or two integrated HIV proviruses expressing the luciferase reporter gene, were added at equal amounts for a total of 5,000 cells per well to 384-well plates containing compound titrations. Dose-response testing was performed on compounds dissolved in dimethyl sulfoxide (DMSO, Fisher Scientific, Merelbeke, Belgium) dispensed in duplicate serial 3-fold, 14-point titrations using a D300e Digital Droplet Dispenser (Hewlett-Packard) to give final assay concentrations of 10 μM to 2.1 pM in 50 μL of medium at 0.5% DMSO (vol/vol) final concentration. Cells and compound were incubated at 37° C. for 48 hours, unless otherwise indicated, followed by the addition of 20 μL of Steady-Glo® Luciferase (Promega). Luminescence resulting from the induction of the virally expressed luciferase was measured using an EnVision 2102 Multilabel Plate Reader (Perkin Elmer). Dose-response relationships were analyzed with GraphPad PRISM 6 using a four-parameter logistic regression model to calculate the concentration of compound that gives half-maximal response (EC50) and the maximal percent activation compared to the vehicle control.

How did the EC50 turn out when CN[C@@H](C)C(=O)N[C@H]1CCS[C@H]2CC(C)(C)[C@@H](C(=O)Nc3ccccc3CCc3ccccc3NC(=O)[C@H]3N4C(=O)[C@@H](NC(=O)[C@H](C)NC)CCS[C@H]4CC3(C)C)N2C1=O [compound 3, (4S,4′S,7S,7′S,9aS,9a′S)-N,N′-(ethane-1,2-diylbis(2,1-phenylene))bis(8,8-dimethyl-4-((S)-2-(methylamino)propanamido)-5-oxooctahydropyrrolo[2,1-b][1,3]thiazepine-7-carboxamide) dihydrochloride] was run?
The EC50 was 80.5 nM.

CN[C@@H](C)C(=O)NC1CCS[C@H]2CC(C)(C)[C@@H](C(=O)N[C@H]3c4ccccc4CC[C@H]3C(=O)NCc3ccc(CNC(=O)[C@@H]4CCc5ccccc5C4NC(=O)[C@H]4N5C(=O)[C@@H](NC(=O)[C@H](C)NC)CCS[C@H]5CC4(C)C)cc3)N2C1=O (stereo in doubt) [compound 9, (4S,4′S,7S,7′S,9aS,9a′S)-N,N′-((1R,1′R,2R,2′R)-(((1,4-phenylenebis(methylene))bis(azanediyl))bis(carbonyl))bis(1,2,3,4-tetrahydronaphthalene-2,1-diyl))bis(8,8-dimethyl-4-((S)-2-(methylamino)propanamido)-5-oxooctahydropyrrolo[2,1-b][1,3]thiazepine-7-carboxamide) dihydrochloride] was tested. Which EC50 did it give?
Its EC50 is 90.3 nM.

With CN[C@@H](C)C(=O)N[C@H]1CCS[C@H]2CC(C)(C)[C@@H](C(=O)N[C@H](C(=O)NCC#CC#CCNC(=O)[C@@H](NC(=O)[C@H]3N4C(=O)[C@@H](NC(=O)[C@H](C)NC)CCS[C@H]4CC3(C)C)c3ccccc3)c3ccccc3)N2C1=O [compound 30, (4S,4′S,7S,7′S,9aS,9a′S)-N,N′-((1S,1′S)-(hexa-2,4-diyne-1,6-diylbis(azanediyl))bis(2-oxo-1-phenylethane-2,1-diyl))bis(8,8-dimethyl-4-((S)-2-(methylamino)propanamido)-5-oxooctahydropyrrolo[2,1-b][1,3]thiazepine-7-carboxamide) dihydrochloride] as the molecule, how does the EC50 read?
Its EC50 is 65.4 nM.

How did the EC50 turn out when CN[C@@H](C)C(=S)N[C@H]1CCS[C@H]2CC(C)(C)[C@@H](C(=O)N[C@H]3c4ccccc4C[C@H]3OCCCCCCO[C@@H]3Cc4ccccc4[C@@H]3NC(=O)[C@H]3N4C(=O)[C@@H](NC(=S)[C@H](C)NC)CCS[C@H]4CC3(C)C)N2C1=O [compound 21, (4S,4′S,7S,7′S,9aS,9a′S)-N,N′-((1S,1′S,2R,2′R)-(hexane-1,6-diylbis(oxy))bis(2,3-dihydro-1H-indene-2,1-diyl))bis(8,8-dimethyl-4-((S)-2-(methylamino)propanethioamido)-5-oxooctahydropyrrolo[2,1-b][1,3]thiazepine-7-carboxamide)] was run?
The EC50 was 13 nM.

For CN[C@@H](C)C(=O)N[C@H]1CCS[C@H]2CC(C)(C)[C@@H](C(=O)N[C@H](C(=O)N3CCN(C(=O)[C@@H](NC(=O)[C@H]4N5C(=O)[C@@H](NC(=O)[C@H](C)NC)CCS[C@H]5CC4(C)C)c4ccccc4)CC3)c3ccccc3)N2C1=O [compound 26, (4S,4′S,7S,7′S,9aS,9a′S)-N,N′-((1S,1′S)-piperazine-1,4-diylbis(2-oxo-1-phenylethane-2,1-diyl))bis(8,8-dimethyl-4-((S)-2-(methylamino)propanamido)-5-oxooctahydropyrrolo[2,1-b][1,3]thiazepine-7-carboxamide) dihydrochloride], which EC50 is on record?
Its EC50 is 69.1 nM.

How did the EC50 turn out when CN[C@@H](C)C(=S)N[C@H]1CCS[C@H]2CC(C)(C)[C@@H](C(=O)N[C@H]3c4ccccc4C[C@H]3C(=O)NCc3ccc(CNC(=O)[C@@H]4Cc5ccccc5[C@@H]4NC(=O)[C@H]4N5C(=O)[C@@H](NC(=S)[C@H](C)NC)CCS[C@H]5CC4(C)C)cc3)N2C1=O [compound 44, (4S,7S,9aS)-N-[(1R,2R)-2-({[4-({[(1R,2R)-1-[(4S,7S,9aS)-8,8-dimethyl-4-[(2S)-2-(methylamino)propanethioamido]-5-oxo-octahydropyrrolo[2,1-b][1,3]thiazepine-7-amido]-2,3-dihydro-1H-inden-2-yl]formamido}methyl)phenyl]methyl}carbamoyl)-2,3-dihydro-1H-inden-1-yl]-8,8-dimethyl-4-[(2S)-2-(methylamino)propanethioamido]-5-oxo-octahydropyrrolo[2,1-b][1,3]thiazepine-7-carboxamide] was run?
Its EC50 is 20.4 nM.

How did the EC50 turn out when CN[C@@H](C)C(=S)N[C@H]1CCS[C@H]2CC(C)(C)[C@@H](C(=O)N[C@H](COCCCCCCOC[C@@H](NC(=O)[C@H]3N4C(=O)[C@@H](NC(=S)[C@H](C)NC)CCS[C@H]4CC3(C)C)c3ccccc3)c3ccccc3)N2C1=O [compound 41, (4S,4′S,7S,7′S,9aS,9a′S)-N,N′-((1S,1′S)-(hexane-1,6-diylbis(oxy))bis(1-phenylethane-2,1-diyl))bis(8,8-dimethyl-4-((S)-2-(methylamino)propanethioamido)-5-oxooctahydropyrrolo[2,1-b][1,3]thiazepine-7-carboxamide) dihydrochloride] was run?
Its EC50 is 51.6 nM.

With CN[C@@H](C)C(=S)N[C@H]1CCS[C@H]2CC(C)(C)[C@@H](C(=O)N[C@H](COCCCCOC[C@@H](NC(=O)[C@H]3N4C(=O)[C@@H](NC(=S)[C@H](C)NC)CCS[C@H]4CC3(C)C)c3ccccc3)c3ccccc3)N2C1=O [compound 37, (4S,4′S,7S,7′S,9aS,9a′S)-N,N′-((1S,1′S)-(butane-1,4-diylbis(oxy))bis(1-phenylethane-2,1-diyl))bis(8,8-dimethyl-4-((S)-2-(methylamino)propanethioamido)-5-oxooctahydropyrrolo[2,1-b][1,3]thiazepine-7-carboxamide) dihydrochloride] as the molecule, how does the EC50 read?
The EC50 was 10.9 nM.

Which EC50 does the source give for CN[C@@H](C)C(=S)N[C@H]1CCS[C@H]2CC(C)(C)[C@@H](C(=O)N[C@H](COCCCn3cc(COC[C@@H](NC(=O)[C@H]4N5C(=O)[C@@H](NC(=S)[C@H](C)NC)CCS[C@H]5CC4(C)C)c4ccccc4)nn3)c3ccccc3)N2C1=O [compound 53, (4S,7S,9aS)-N-[(1S)-2-[3-(4-{[(2S)-2-{[(4S,7S,9aS)-8,8-dimethyl-4-[(2S)-2-(methylamino)propanethioamido]-5-oxo-octahydropyrrolo[2,1-b][1,3]thiazepin-7-yl]formamido}-2-phenylethoxy]methyl}-1H-1,2,3-triazol-1-yl)propoxy]-1-phenylethyl]-8,8-dimethyl-4-[(2S)-2-(methylamino)propanethioamido]-5-oxo-octahydropyrrolo[2,1-b][1,3]thiazepine-7-carboxamide] here?
The EC50 was 178 nM.

How did the EC50 turn out when CN[C@@H](C)C(=O)N[C@H]1CCS[C@H]2CC(C)(C)[C@@H](C(=O)Nc3ccc(CCc4ccc(NC(=O)[C@H]5N6C(=O)[C@@H](NC(=O)[C@H](C)NC)CCS[C@H]6CC5(C)C)cc4)cc3)N2C1=O [compound 5, (4S,4′S,7S,7′S,9aS,9a′S)-N,N′-(ethane-1,2-diylbis(4,1-phenylene))bis(8,8-dimethyl-4-((S)-2-(methylamino)propanamido)-5-oxooctahydropyrrolo[2,1-b][1,3]thiazepine-7-carboxamide) ditrifluoroacetate] was run?
Its EC50 is 53.6 nM.

For CN[C@@H](C)C(=S)N[C@H]1CCS[C@H]2CC(C)(C)[C@@H](C(=O)N[C@H](C(=O)NCc3ccc(CNC(=O)[C@@H](NC(=O)[C@H]4N5C(=O)[C@@H](NC(=S)[C@H](C)NC)CCS[C@H]5CC4(C)C)c4ccccc4)cc3)c3ccccc3)N2C1=O [compound 25, (4S,4′S,7S,7′S,9aS,9a′S)-N,N′-((1S,1′S)-((1,4-phenylenebis(methylene))bis(azanediyl))bis(2-oxo-1-phenylethane-2,1-diyl))bis(8,8-dimethyl-4-((S)-2-(methylamino)propanethioamido)-5-oxooctahydropyrrolo[2,1-b][1,3]thiazepine-7-carboxamide) dihydrochloride], which EC50 is on record?
Its EC50 is 61.8 nM.

CN[C@@H](C)C(=S)N[C@H]1CCS[C@H]2CC(C)(C)[C@@H](C(=O)N[C@H](COCCOCCOC[C@@H](NC(=O)[C@H]3N4C(=O)[C@@H](NC(=S)[C@H](C)NC)CCS[C@H]4CC3(C)C)c3ccccc3)c3ccccc3)N2C1=O [compound 39, (4S,4′S,7S,7′S,9aS,9a′S)-N,N′-((1S,1′S)-((oxybis(ethane-2,1-diyl))bis(oxy))bis(1-phenylethane-2,1-diyl))bis(8,8-dimethyl-4-((S)-2-(methylamino)propanethioamido)-5-oxooctahydropyrrolo[2,1-b][1,3]thiazepine-7-carboxamide) dihydrochloride] was tested. Which EC50 did it give?
Its EC50 is 51.8 nM.

With CN[C@@H](C)C(=O)N[C@H]1CCS[C@H]2CC(C)(C)[C@@H](C(=O)N[C@H](COCCOCCOC[C@@H](NC(=O)[C@H]3N4C(=O)[C@@H](NC(=O)[C@H](C)NC)CCS[C@H]4CC3(C)C)c3ccccc3)c3ccccc3)N2C1=O [compound 38, (4S,4′S,7S,7′S,9aS,9a′S)-N,N′-((1S,1′S)-((oxybis(ethane-2,1-diyl))bis(oxy))bis(1-phenylethane-2,1-diyl))bis(8,8-dimethyl-4-((S)-2-(methylamino)propanamido)-5-oxooctahydropyrrolo[2,1-b][1,3]thiazepine-7-carboxamide)] as the molecule, how does the EC50 read?
The EC50 was 50.7 nM.
